Values after ≈ are worked out from the molar mass of the structure shown. Active and inactive are the calls of the source. The calls are words filed in the database; no cut-off is given here.
Tests used:
Candida albicans = assay: Antifungal activity against Candida albicans ATCC 10231 at 100 ug/ml after 2 weeks; assay type: functional, organism-based
Aspergillus fumigatus = assay: Antifungal activity against Aspergillus fumigatus HIC 6094 at 100 ug/ml after 2 weeks; assay type: functional, organism-based
Trichophyton rubrum = assay: Antifungal activity against Trichophyton rubrum IFO 9185 at 100 ug/ml after 2 weeks; assay type: functional, organism-based
[1] = test system: Trichophyton mentagrophytes; assay: Antifungal activity against Trichophyton mentagrophytes IFO 40996 at 100 ug/ml after 2 weeks; assay type: functional, organism-based
Bacillus subtilis = assay: Antibacterial activity against Bacillus subtilis ATCC 6633 after 24 hrs by broth dilution method; assay type: functional; conditions: ATCC 6633, 24 h
Micrococcus luteus = assay: Antibacterial activity against Micrococcus luteus IFC 12708 after 24 hrs by broth dilution method; assay type: functional; conditions: IFC 12708, 24 h
Proteus vulgaris = assay: Antibacterial activity against Proteus vulgaris ATCC 3851 after 24 hrs by broth dilution method; assay type: functional; conditions: ATCC 3851, 24 h
Salmonella typhimurium = assay: Antibacterial activity against Salmonella Typhimurium ATCC 14028 after 24 hrs by broth dilution method; assay type: functional, Salmonella enterica subsp. enterica serovar Typhimurium; conditions: Salmonella enterica, ATCC 14028, 24 h
[2] = Inhibition of porcine cerebral cortex Na+/K+ ATPase by spectrophotometry; assay type: tissue-based, Sus scrofa
Isocitrate lyase = Isocitrate lyase (Candida albicans, UniProt Q9P8Q7); assay: Inhibition of Candida albicans ICL assessed as formation of glyoxylate phenylhydrazone by spectrophotometry
Chain of Isocitrate lyase (Q9P8Q7 whole entry): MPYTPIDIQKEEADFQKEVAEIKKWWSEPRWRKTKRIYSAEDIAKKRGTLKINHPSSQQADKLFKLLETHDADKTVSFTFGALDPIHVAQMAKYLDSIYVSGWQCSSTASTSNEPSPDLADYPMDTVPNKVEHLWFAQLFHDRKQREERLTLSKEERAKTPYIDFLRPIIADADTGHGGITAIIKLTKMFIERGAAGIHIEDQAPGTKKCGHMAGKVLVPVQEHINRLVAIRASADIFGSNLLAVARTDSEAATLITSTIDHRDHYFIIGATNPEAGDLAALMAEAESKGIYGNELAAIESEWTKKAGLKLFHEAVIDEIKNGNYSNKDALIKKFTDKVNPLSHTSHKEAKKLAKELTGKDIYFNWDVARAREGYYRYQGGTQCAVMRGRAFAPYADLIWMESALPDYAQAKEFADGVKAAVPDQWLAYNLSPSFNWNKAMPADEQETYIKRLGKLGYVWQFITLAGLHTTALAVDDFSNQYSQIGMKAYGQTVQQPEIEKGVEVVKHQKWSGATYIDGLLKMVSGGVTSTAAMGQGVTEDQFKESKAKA

For `O=C(O)CC[N+](=O)[O-]`, the inhibition (Candida albicans) was “inactive”, the inhibition (Aspergillus fumigatus) was “inactive” and the inhibition (Trichophyton rubrum) was “inactive”. For the same compound, the inhibition [1] was “inactive”.

Compound `CC1(C)S[C@@H]2[C@H](NC(=O)[C@H](N)c3ccccc3)C(=O)N2[C@H]1C(=O)O` [AMPICILLIN] has an MIC (Bacillus subtilis) of 0.78 µg/mL (≈ 2.23 µM), an MIC (Micrococcus luteus) of 0.78 µg/mL (≈ 2.23 µM) and an MIC (Proteus vulgaris) of 0.78 µg/mL (≈ 2.23 µM). For the same compound, the inhibition (Candida albicans) was “inactive”, the inhibition (Aspergillus fumigatus) was “inactive” and the MIC (Salmonella typhimurium) was 0.78 µg/mL (≈ 2.23 µM). The inhibition (Trichophyton rubrum) was “inactive” and the inhibition [1] was “inactive”.

For `C[C@@H]1O[C@@H](O[C@H]2C[C@@H](O)[C@]3(CO)[C@H]4[C@H](O)C[C@]5(C)[C@@H](C6=CC(=O)OC6)CC[C@]5(O)[C@@H]4CC[C@]3(O)C2)[C@H](O)[C@H](O)[C@H]1O` [OUABAIN], the IC50 [2] was 4.6 µM, the inhibition (Candida albicans) was “inactive” and the inhibition (Aspergillus fumigatus) was “inactive”. For the same compound, the inhibition (Trichophyton rubrum) was “inactive” and the inhibition [1] was “inactive”.

For `CC(C)=C[C@@H](O)[C@@H](O)/C(C)=C/CC/C(C)=C/CC[C@]1(C)CCc2cc(O)cc(C)c2O1` [SARGACHROMANO D], the IC50 (Isocitrate lyase) was over 467 µM.

Compound `CC(C)=C/C(C=O)=C(\C)CCC/C(C)=C/CC[C@]1(C)CCc2cc(O)cc(C)c2O1` [SARGACHROMANO N] has an IC50 (Isocitrate lyase) of over 487 µM.

Compound `C/C(C=O)=C\CC/C(C)=C/CC[C@]1(C)CCc2cc(O)cc(C)c2O1` [SARGACHROMANOL A] has an IC50 (Isocitrate lyase) of 185 µM.

Compound `C/C(=C\CC/C(C)=C/CC[C@]1(C)CCc2cc(O)cc(C)c2O1)CO` [SARGACHROMANOL B] has an IC50 (Isocitrate lyase) of over 581 µM.

With `CC(C)=CC[C@@H](O)/C(C)=C/CC/C(C)=C/CC[C@]1(C)CCc2cc(O)cc(C)c2O1` [SARGACHROMANOL C] the IC50 (Isocitrate lyase) was over 485 µM.

Work on `CC(C)=C[C@H](O)[C@@H](O)/C(C)=C/CC/C(C)=C/CC[C@]1(C)CCc2cc(O)cc(C)c2O1` [SARGACHROMANOL E] yielded an IC50 (Isocitrate lyase) of over 467 µM.

Compound `COC(/C(C)=C/CC/C(C)=C/CC[C@]1(C)CCc2cc(O)cc(C)c2O1)[C@H](O)C=C(C)C` (stereo partly drawn) [SARGACHROMANOL F] has an IC50 (Isocitrate lyase) of over 452 µM.

For `CC(C)=C[C@@H](O)C(=O)/C(C)=C/CC/C(C)=C/CC[C@]1(C)CCc2cc(O)cc(C)c2O1` [SARGACHROMANOL G], the IC50 (Isocitrate lyase) was over 469 µM.

`C/C(=C\CC[C@]1(C)CCc2cc(O)cc(C)c2O1)C/C=C\C(C)C(=O)[C@H](O)CC(C)C` (stereo partly drawn) [SARGACHROMANOL H] gave an IC50 (Isocitrate lyase) of over 467 µM.

`CC(C)=C[C@@H](O)C(=O)C(C)CCC/C(C)=C/CC[C@]1(C)CCc2cc(O)cc(C)c2O1` (stereo partly drawn) [SARGACHROMANOL I] showed an IC50 (Isocitrate lyase) of over 467 µM.

Work on `C/C(=C\CC[C@]1(C)CCc2cc(O)cc(C)c2O1)CCCC(C)C(=O)[C@@H](O)CC(C)C` (stereo partly drawn) [SARGACHROMANOL J] yielded an IC50 (Isocitrate lyase) of over 464 µM.

`CC(C)=CC(=O)[C@@H](O)/C(C)=C/CC/C(C)=C/CC[C@]1(C)CCc2cc(O)cc(C)c2O1` [SARGACHROMANOL K] gave an IC50 (Isocitrate lyase) of over 469 µM.

Compound `CC(C)=CC(CO)/C(C)=C/CC/C(C)=C/CC[C@]1(C)CCc2cc(O)cc(C)c2O1` (stereo partly drawn) [SARGACHROMANOL L] has an IC50 (Isocitrate lyase) of 117 µM.

With `CC(C)=C/C(C=O)=C(/C)CCC/C(C)=C/CC[C@]1(C)CCc2cc(O)cc(C)c2O1` [SARGACHROMANOL M] the IC50 (Isocitrate lyase) was 173 µM.

Work on `CC(C)=CC(C(=O)O)/C(C)=C/CC/C(C)=C/CC[C@]1(C)CCc2cc(O)cc(C)c2O1` (stereo partly drawn) [SARGACHROMANOL O] yielded an IC50 (Isocitrate lyase) of over 469 µM.

With `CC(C)=C[C@@H]1C(=O)C(C)=C[C@H]1C/C(C)=C/CC[C@]1(C)CCc2cc(O)cc(C)c2O1` [SARGACHROMANOL P] the IC50 (Isocitrate lyase) was 149 µM.
